From ChEMBL document CHEMBL4725351, “Cyclic Derivative of Host-Defense Peptide IDR-1018 Improves Proteolytic Stability, Suppresses Inflammation, and Enhances In Vivo Activity” (J Med Chem, 2020)
The source made the active and inactive calls. Where a SMILES comes first, the peptide text is derived from it. Bridges are numbered along the chain shown (N, C = ends).

Tests used:
[1] = test system: Pseudomonas aeruginosa; assay: Antibacterial activity against Pseudomonas aeruginosa PAO1 measured after overnight incubation by microtitre plate based spectrophotometric method; type: functional
[2] = test system: Staphylococcus aureus; assay: Antibiofilm activity against methicillin-resistant Staphylococcus aureus USA300 LAC incubated for 24 hrs under shaking condition by turbidometric method; type: functional
[3] = test system: Acinetobacter baumannii; assay: Antibiofilm activity against Acinetobacter baumannii 17918 incubated for 24 hrs under shaking condition by turbidometric method; type: functional
[4] = test system: Pseudomonas aeruginosa; assay: Antibacterial activity against Pseudomonas aeruginosa PA14 measured after overnight incubation by microtitre plate based spectrophotometric method; type: functional
[5] = test system: Klebsiella pneumoniae; assay: Antibiofilm activity against Klebsiella pneumoniae ATTC 13883 incubated for 24 hrs under shaking condition by turbidometric method; type: functional
[6] = test system: Staphylococcus aureus; assay: Antibacterial activity against Staphylococcus aureus USA300 LAC infected in CD1 mouse assessed as reduction in bacterial load at 7.5 mg/kg, sc administered at infection site measured after 3 days by colony counting method relative to control; type: functional; conditions: time 3.0 day
[7] = test system: PBMC; assay: Immunomodulatory activity in human PBMC assessed as increase in IL-1RA production at 25 ug/ml measured after overnight incubation by ELISA; type: functional, tissue-based; conditions: dose 25.0 µg/ml
[8] = target: T1, Trypsin (Homo sapiens, UniProt P07477+P07478+P35030); assay: Stability of the compound in pH 8.2 ammonium bicarbonate buffer assessed as trypsin (unknown origin)-mediated drug degradation at 20 ug/ml measured up to 120 mins by RP-HPLC analysis; type: ADME, protein assay; conditions: pH 8.2, 2 h, at 20 µg/mL
[9] = test system: PBMC; assay: Immunomodulatory activity in human PBMC assessed as increase in MCP1 production at 25 ug/ml measured after overnight incubation by ELISA; type: functional, tissue-based; conditions: dose 25.0 µg/ml
[10] = Aggregation property of the compound in 5% dextrose at 1 mg/ml by turbidimetric method; type: physicochemical
[11] = Aggregation of the compound in human PBMC assessed as amorphous morphology at 50 ug/ml measured after 4 hrs by microscopic analysis; type: ADME, tissue-based; conditions: dose 50 µg/ml
[12] = target: T1, Trypsin; assay: Stability of the compound in pH 8.2 ammonium bicarbonate buffer assessed as trypsin (unknown origin)-mediated drug degradation at 20 ug/ml measured up to 120 mins by MALDI-TOF analysis; type: ADME, protein assay; conditions: pH 8.2, 2 h, at 20 µg/mL
[13] = test system: Staphylococcus aureus; assay: Antibacterial activity against methicillin-resistant Staphylococcus aureus SAP0017 measured after overnight incubation by microtitre plate based spectrophotometric method; type: functional
[14] = test system: Escherichia coli; assay: Antibacterial activity against Escherichia coli ATTC 489 measured after overnight incubation by microtitre plate based spectrophotometric method; type: functional
[15] = Immunomodulatory activity in human PBMC assessed as increase in LPS-induced MCP1 production at 25 ug/ml measured after overnight incubation by ELISA; type: functional; conditions: dose 25 µg/ml
[16] = test system: Pseudomonas aeruginosa; assay: Antibiofilm activity against Pseudomonas aeruginosa PA14 incubated for 24 hrs under shaking condition by turbidometric method; type: functional
[17] = test system: Pseudomonas aeruginosa; assay: Antibiofilm activity against Pseudomonas aeruginosa PAO1 incubated for 24 hrs under shaking condition by turbidometric method; type: functional
[18] = test system: Escherichia coli; assay: Antibiofilm activity against Escherichia coli ATTC 489 incubated for 24 hrs under shaking condition by turbidometric method; type: functional
[19] = Aggregation property of the compound in sodium nitrate solution at 10 mM by turbidimetric method; type: physicochemical; conditions: 10000 µM
[20] = test system: PBMC; assay: Immunomodulatory activity in human PBMC assessed as reduction in LPS-induced IL1beta production at 25 ug/ml measured after overnight incubation by ELISA; type: functional, tissue-based; conditions: dose 25.0 µg/ml
[21] = Aggregation property of the compound in RPMI medium with 1% FBS at 1 mg/ml by turbidimetric method; type: physicochemical
[22] = test system: Staphylococcus aureus; assay: Antibacterial activity against Staphylococcus aureus USA300 LAC infected in CD1 mouse assessed as reduction in dermonecrosis at 7.5 mg/kg, sc administered at infection site measured after 3 days by caliper method relative to control; type: functional; conditions: time 3.0 day
[23] = test system: PBMC; assay: Immunomodulatory activity in human PBMC assessed as change in TNFalpha production at 25 ug/ml measured after overnight incubation by ELISA; type: functional, tissue-based; conditions: dose 25.0 µg/ml
[24] = test system: PBMC; assay: Immunomodulatory activity in human PBMC assessed as reduction in LPS-induced TNFalpha production at 25 ug/ml measured after overnight incubation by ELISA; type: functional, tissue-based; conditions: dose 25.0 µg/ml
[25] = Toxicity in CD1 mouse assessed as precipitation under the skin at 10 mg/kg, sc measured after 16 hrs; type: organism-based; conditions: in vivo
[26] = test system: PBMC; assay: Immunomodulatory activity in human PBMC assessed as increase in LPS-induced IL10 production at 25 ug/ml measured after overnight incubation by ELISA; type: functional; conditions: dose 25.0 µg/ml
[27] = test system: Klebsiella pneumoniae; assay: Antibacterial activity against Klebsiella pneumoniae ATTC 13883 measured after overnight incubation by microtitre plate based spectrophotometric method; type: functional
[28] = test system: Acinetobacter baumannii; assay: Antibacterial activity against Acinetobacter baumannii 5015 measured after overnight incubation by microtitre plate based spectrophotometric method; type: functional
[29] = Aggregation property of the compound in water at 1 mg/ml by turbidimetric method; type: physicochemical; conditions: buffer
[30] = Aggregation property of the compound in sodium citrate solution at 10 mM by turbidimetric method; type: physicochemical; conditions: 10000 µM
[31] = Aggregation property of the compound in saline at 1 mg/ml by turbidimetric method; type: physicochemical; conditions: buffer
[32] = test system: Acinetobacter baumannii; assay: Antibiofilm activity against Acinetobacter baumannii 5015 incubated for 24 hrs under shaking condition by turbidometric method; type: functional
[33] = Aggregation property of the compound in sodium phosphate solution at 10 mM by turbidimetric method; type: physicochemical; conditions: 10000 µM
[34] = test system: Staphylococcus aureus; assay: Antibacterial activity against methicillin-resistant Staphylococcus aureus USA300 LAC measured after overnight incubation by microtitre plate based spectrophotometric method; type: functional
[35] = test system: Acinetobacter baumannii; assay: Antibacterial activity against Acinetobacter baumannii 17918 measured after overnight incubation by microtitre plate based spectrophotometric method; type: functional
[36] = test system: Staphylococcus aureus; assay: Antibiofilm activity against methicillin-resistant Staphylococcus aureus SAP0017 incubated for 24 hrs under shaking condition by turbidometric method; type: functional
[37] = Cytotoxicity against human PBMC assessed as reduction in cell viability at 100 ug/ml measured after 24 hrs by LDH assay; type: tissue-based; conditions: dose 100 µg/ml
[38] = test system: PBMC; assay: Immunomodulatory activity in human PBMC assessed as increase in LPS-induced IL1RA production at 25 ug/ml measured after overnight incubation by ELISA; type: functional; conditions: dose 25.0 µg/ml

CC[C@H](C)[C@@H]1NC(=O)[C@H](CCCNC(=N)N)NC(=O)[C@H](C(C)C)NC(=O)[C@H](C)NC(=O)[C@H](C(C)C)NC(=O)[C@H]([C@@H](C)CC)NC(=O)[C@H](CC(C)C)NC(=O)[C@H](CCCNC(=N)N)NC(=O)[C@H](C(C)C)NC(=O)[C@@H](N)CSSC[C@@H](C(N)=O)NC(=O)[C@H](CCCNC(=N)N)NC(=O)[C@H](CCCNC(=N)N)NC(=O)[C@H](Cc2c[nH]c3ccccc23)NC1=O (H-CVRLIVAVRIWRRC-NH2; disulfide 1-14)
57.4 µM: MIC [1] | MBEC [3] | MIC [4] | MBEC [16] | MBEC [17] | MIC [28] | MBEC [32] | MIC [35]
28.7 µM: MBEC [5] | MIC [13] | MIC [14] | MIC [27] | MIC [34]
18.3 µM: MBEC [2] | MBEC [36]
35%: Activity [15]
Active: Activity [19] | Activity [21] | Activity [30] | Activity [33]
Stable: Stabilty [8] | Stabilty [12]
36.7 µM: MBEC [18]
active: Activity [7] | Activity [9] | Activity [20] | Activity [24] | Activity [26] | Activity [38]
Toxic: Activity [25] | Activity [37]
Not Active: Activity [10] | Activity [11] | Activity [29] | Activity [31]
inactive: Activity [6] | Activity [22] | Activity [23]

CC[C@H](C)[C@@H]1NC(=O)[C@H](CCCNC(=N)N)NC(=O)[C@H](C(C)C)NC(=O)[C@H](C)NC(=O)[C@H](C(C)C)NC(=O)[C@H]([C@@H](C)CC)NC(=O)[C@H](CC(C)C)NC(=O)[C@H](CCCNC(=N)N)NC(=O)[C@H](C(C)C)NC(=O)[C@H](CCCNC(=N)N)NC(=O)[C@H](CCCNC(=N)N)NC(=O)[C@H](Cc2c[nH]c3ccccc23)NC1=O (cyclo(AVRIWRRVRLIV))
Not Active: Activity [10] | Activity [11] | Activity [19] | Activity [29] | Activity [30] | Activity [31] | Activity [33]
> 65.8 µM: MIC [1] | MIC [4]
Stable: Stabilty [8] | Stabilty [12]
Toxic: Activity [37]
>65.8 µM: MBEC [3] | MBEC [5] | MBEC [16] | MBEC [17] | MBEC [18] | MBEC [32]
active: Activity [7] | Activity [9] | Activity [23]
65.8 µM: MBEC [2] | MIC [13] | MIC [14] | MIC [27] | MIC [28] | MIC [34] | MIC [35] | MBEC [36]
Active: Activity [21]
